# Measured values taken from US6395711B1, “Macrolides with antitumor activity” (priority 1997, dated 2002).
# “Also recorded” adds a separate entry of the source. Like-named read-outs stand apart in the source and are kept apart here.
# Experiments:
# [1] = system: P-388 (suspension culture of a lymphoid neoplasm from DBA/2 mouse); assay: In vitro antitumor activity, P-388 cells; type: cell-based; settings: for IC50: Mus musculus, P388, 72 h, read-out: IC50 P-388
# Source text: (§1) The antitumor activity has been deteced in vitro by culturing the tumor cells following the methodology described by Bergeron, et al.(2), and by Schroeder, et al. (6). Activity against several human tumors as leukaemia, colon carcinoma, NSC lung carcinoma, melanoma, and the like has been observed.
# (§2) Biological activity: the antitumor cells employed have been P-388 (suspension culture of a lymphoid neoplasm from DBA/2 mouse), A-549 (monolayer culture of a human macrocytic lung carcinoma, HT-29 (monolayer culture of a human colon carcinoma), and MEL-28 (monolayer culture of a human melanoma), and the other indicated cell lines.
# (§3) P-388 cells were seeded into 16 mm wells at 1×10^4 cells per well in 1 ml aliquots of MEM 5FCS containing the indicated concentration of drug. A separate set of cultures without drug were seeded as control of growth to ensure that cells remained in exponential phase of growth. All determinations were carried out duplicated. After three days of incubation at 37° in 10% CO2 atmosphere with 98% humidity, the wells were stained with 0.1% Crystal Violet. The IC50 was calculated by comparing the growth in wells with drug with the growth in control wells without the drug.
# (§4) In Table 5 are presented the activity expressed as IC50 in mcg/ml
# [2] = system: A-549 (monolayer culture of a human macrocytic lung carcinoma); assay: In vitro antitumor activity, A-549 cells; type: cell-based
# Source text: as §1, §2, §3, §4
# [3] = system: HT-29 (monolayer culture of a human colon carcinoma); assay: In vitro antitumor activity, HT-29 cells; type: cell-based
# Source text: as §1, §2, §3, §4
# [4] = system: MEL-28 (monolayer culture of a human melanoma); assay: In vitro antitumor activity, MEL-28 cells; type: cell-based
# Source text: as §1, §2, §3, §4
# CV1 = assay: In vitro activity, CV1 cells; type: cell-based; settings: Cercopithecidae, CV-1
# Source text: as §1, §2, §3, §4
# [5] = system: several mammalian cancer cell lines; assay: In vitro antitumor activity, several mammalian cancer cell lines; type: cell-based
# Source text: as §1
# P388MDR = assay: In vitro antitumor activity, P388MDR cells; type: cell-based, murine
# Source text: as §1, §2, §3, §4
# [6] = three days of incubation, Crystal Violet
Structure (SMILES),"IC50 P-388 [1, 6]",IC50 P388MDR (P388MDR),IC50 A-549 [2],IC50 HT-29 [3],IC50 MEL-28 [4],other results
CCCC1(O)C(O)C(C)C/C=C/C=C/C(CC(C)O)CCC2OC3(CCC(C)C(C(C)C(O)CC)O3)C(C)C(OC(=O)/C=C/C(C)C(O)C(C)C(O)C(O)C(O)C(O)C1O)C2C (centres unmarked) [IB-96212B],,,,,,"IC50 [1, 6]: 0.001 µg/mL; IC50 ([2]; Homo sapiens, A549; read-out: IC50 A-549): 1 µg/mL; IC50 ([3]; Homo sapiens, HT-29; read-out: IC50 HT-29): 1.2 µg/mL; IC50 ([4]; Homo sapiens, SK-MEL-28; read-out: IC50 MEL-28): 1 µg/mL; IC50 (CV1): 1 ng/mL; antitumor activity against several mammalian cancer cell lines (in words) [5]: activity comparable to the parent IB-96212; also recorded: good antitumor actvity"
COc1cccc2c1C(=O)c1c(O)c3c(c(O)c1C2=O)C[C@@](O)(C(=O)CO)C[C@@H]3O[C@H]1C[C@H](N)[C@H](O)[C@H](C)O1 [adriamicin],0.02 µg/mL,1 µg/mL,0.002 µg/mL,0.05 µg/mL,0.02 µg/mL,
N.N.[Cl][Pt][Cl] [cis-platin],2.5 µg/mL,2.5 µg/mL,2.5 µg/mL,5 µg/mL,2.5 µg/mL,
COc1cc([C@@H]2c3cc4c(cc3[C@@H](O[C@@H]3O[C@@H]5CO[C@@H](C)O[C@H]5[C@H](O)[C@H]3O)[C@H]3COC(=O)[C@H]23)OCO4)cc(OC)c1O [etopoxide],0.1 µg/mL,10 µg/mL,0.1 µg/mL,1 µg/mL,0.5 µg/mL,
CC(=O)O[C@H]1C(=O)[C@@]2(C)[C@H]([C@H](OC(=O)c3ccccc3)[C@]3(O)C[C@H](OC(=O)[C@H](O)[C@@H](NC(=O)c4ccccc4)c4ccccc4)C(C)=C1C3(C)C)[C@]1(OC(C)=O)CO[C@@H]1C[C@@H]2O [taxol],,,,,,"IC50 [1]: 0.2 µg/mL; IC50 (P388MDR; Mus musculus): > 2 µg/mL; IC50 ([2]; Homo sapiens, A549, read-out: IC50 A-549): 0.002 µg/mL; IC50 ([3]; Homo sapiens, HT-29, read-out: IC50 HT-29): 0.002 µg/mL; IC50 ([4]; Homo sapiens, SK-MEL-28, read-out: IC50 MEL-28): 0.002 µg/mL"
